From patent US9434711B2 (Janssen Pharmaceutica, NV, priority 2007, dated 2016)
pIC50: −log10 of the molar value.

Molecular target: canine TRPM8 (Canis lupus familiaris, UniProt Q1A7N1)
Assay: In Vitro Canine TRPM8 Functional Assay (Ca2+ fluorescence, icilin activation)
Format: cell-based
Conditions: for pIC50: HEK293 cells stably expressing canine TRPM8, icilin activation, eight-point dose-response, read-out: IC50; for inhibition at 0.5 µM: compound at 0.5 μM, canine TRPM8, icilin activation, read-out: % Inh @ 0.5
Method: The functional activity of compounds of the formula (I) was determined by measuring changes in intracellular calcium concentration using a Ca^2+-sensitive fluorescent dye. The changes in fluorescent signal were monitored by a fluorescence plate reader, either a FLIPR™ (Molecular Devices) or FDSS (Hamamatsu).
At 24 hrs prior to assay, HEK293 cells stably expressing canine TRPM8 were seeded in culture medium in black wall, clear-base poly-D-lysine coated 384-well plates (BD Biosciences, NJ, USA) and grown overnight in 5% CO2 at 37° C. On assay day, growth media was removed and cells were loaded with Calcium 3 Dye (Molecular Devices) for 35 min at 37° C., under 5% CO2 and then for 25 min at room temperature and atmosphere. Subsequently, cells were tested for agonist-induced increases in intracellular Ca^2+ levels using FLIPR™ or FDSS. Cells were challenged with a compound of the Formula (I) (at varying concentrations) and intracellular Ca^2+ was measured for 5 min prior to the addition of icilin to all wells to achieve a final concentration that produces approximately an 80% maximal response. EC50 or IC50 values for compounds of the present invention were determined from eight-point dose-response studies. Curves were generated using the average of quadruplicate wells for each data point.

canine TRPM8, sequence (Q1A7N1 1-1104): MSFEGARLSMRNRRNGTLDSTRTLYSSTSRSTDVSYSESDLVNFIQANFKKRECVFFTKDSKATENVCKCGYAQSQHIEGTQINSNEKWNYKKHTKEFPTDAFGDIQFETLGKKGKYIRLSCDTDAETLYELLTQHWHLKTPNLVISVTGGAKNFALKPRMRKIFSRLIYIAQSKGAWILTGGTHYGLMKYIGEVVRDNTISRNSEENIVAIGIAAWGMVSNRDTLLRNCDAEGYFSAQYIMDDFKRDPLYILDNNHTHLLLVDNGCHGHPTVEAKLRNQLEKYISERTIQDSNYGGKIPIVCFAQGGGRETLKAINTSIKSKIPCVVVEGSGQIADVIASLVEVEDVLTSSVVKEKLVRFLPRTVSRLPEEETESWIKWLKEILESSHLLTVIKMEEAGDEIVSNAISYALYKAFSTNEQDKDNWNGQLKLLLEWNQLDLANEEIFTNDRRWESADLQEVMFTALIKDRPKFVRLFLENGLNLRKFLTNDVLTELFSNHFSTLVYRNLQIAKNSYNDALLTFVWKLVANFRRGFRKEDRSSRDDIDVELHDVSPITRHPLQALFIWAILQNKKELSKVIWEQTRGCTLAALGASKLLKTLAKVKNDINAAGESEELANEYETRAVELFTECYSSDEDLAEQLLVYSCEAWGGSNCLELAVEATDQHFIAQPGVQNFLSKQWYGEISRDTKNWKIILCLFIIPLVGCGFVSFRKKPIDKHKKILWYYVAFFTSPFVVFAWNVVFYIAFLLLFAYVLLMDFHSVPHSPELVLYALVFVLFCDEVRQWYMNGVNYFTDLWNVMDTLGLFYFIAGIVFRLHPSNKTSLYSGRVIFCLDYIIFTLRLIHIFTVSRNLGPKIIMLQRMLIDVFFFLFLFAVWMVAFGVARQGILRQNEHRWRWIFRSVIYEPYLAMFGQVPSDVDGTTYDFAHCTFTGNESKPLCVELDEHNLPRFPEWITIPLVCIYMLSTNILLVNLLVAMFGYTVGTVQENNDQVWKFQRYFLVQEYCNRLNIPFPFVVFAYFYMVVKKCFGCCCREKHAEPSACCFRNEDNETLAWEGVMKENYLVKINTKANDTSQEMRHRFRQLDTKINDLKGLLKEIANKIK

A pIC50 of 7.62 and an inhibition at 0.5 µM of 100% were found for `O=S(=O)(c1ccccc1)N(Cc1ccc(F)c(F)c1)c1cc2ccccc2s1` [Compound 1, N-Benzo[b]thiophen-2-yl-N-(3,4-difluoro-benzyl)-benzenesulfonamide] in this work.

A pIC50 of 7.46 and an inhibition at 0.5 µM of 98% were found for `O=S(=O)(c1ccccc1)N(Cc1cccc(F)c1)c1cc2ccccc2s1` [Compound 3, N-Benzo[b]thiophen-2-yl-N-(3-fluoro-benzyl)-benzenesulfonamide] in this work.

A pIC50 of 8.40 and an inhibition at 0.5 µM of 97% were found for `O=S(=O)(c1ccccc1)N(Cc1ccc(F)cc1)c1sc2ccccc2c1Cl` [Compound 4, N-(3-Chloro-benzo[b]thiophen-2-yl)-N-(4-fluoro-benzyl)-benzenesulfonamide] in this work.

A pIC50 of 7.20 and an inhibition at 0.5 µM of 97% were found for `O=S(=O)(c1ccccc1)N(Cc1cccc2cccnc12)c1sc2ccccc2c1Cl` [Compound 5, N-(3-Chloro-benzo[b]thiophen-2-yl)-N-quinolin-8-ylmethyl-benzenesulfonamide] in this work.

A pIC50 of 7.95 and an inhibition at 0.5 µM of 99% were found for `O=S(=O)(c1ccccc1)N(Cc1ccc(OC(F)(F)F)cc1)c1sc2ccccc2c1Cl` [Compound 6, N-(3-Chloro-benzo[b]thiophen-2-yl)-N-(4-trifluoromethoxy-benzyl)-benzenesulfonamide] in this work.

A pIC50 of 8.00 and an inhibition at 0.5 µM of 99% were found for `O=S(=O)(c1ccccc1)N(Cc1ccc(C(F)(F)F)cc1)c1sc2ccccc2c1Cl` [Compound 8, N-(3-Chloro-benzo[b]thiophen-2-yl)-N-(4-trifluoromethyl-benzyl)-benzenesulfonamide] in this work.

A pIC50 of 7.33 and an inhibition at 0.5 µM of 98% were found for `O=S(=O)(c1ccccn1)N(Cc1ccc(F)c(F)c1)c1cc2ccccc2s1` [Compound 9, N-(Benzo[b]thiophen-2-yl)-N-(3,4-difluoro-benzyl)-pyridine-2-sulfonamide] in this work.

A pIC50 of 6.64 and an inhibition at 0.5 µM of 89% were found for `Cc1c(N(Cc2cccc3cccnc23)S(=O)(=O)c2cn(C)cn2)sc2ccccc12` [Compound 10, N-(3-Methyl-benzo[b]thiophen-2-yl)-N-(quinolin-8-ylmethyl)-1-methyl-1H-imidazole-4-sulfonamide] in this work.

A pIC50 of 7.48 and an inhibition at 0.5 µM of 97% were found for `Cc1c(N(Cc2ccc(OC(F)(F)F)cc2)S(=O)(=O)c2cn(C)cn2)sc2ccccc12` [Compound 11, N-(3-Methyl-benzo[b]thiophen-2-yl)-N-(4-trifluoromethoxy-benzyl)-1-methyl-1H-imidazole-4-sulfonamide] in this work.

A pIC50 of 8.22 and an inhibition at 0.5 µM of 97% were found for `Cc1c(N(Cc2ccc(F)c(F)c2)S(=O)(=O)c2cccnc2)sc2ccccc12` [Compound 12, N-(3,4-Difluoro-benzyl)-N-(3-methyl-benzo[b]thiophen-2-yl)-pyridine-3-sulfonamide] in this work.

A pIC50 of 8.22 and an inhibition at 0.5 µM of 99% were found for `Cc1c(N(Cc2ccc(OC(F)(F)F)cc2)S(=O)(=O)c2ccsc2)sc2ccccc12` [Compound 16, N-(3-Methyl-benzo[b]thiophen-2-yl)-N-(4-trifluoromethoxy-benzyl)-thiophene-3-sulfonamide] in this work.

A pIC50 of 7.66 and an inhibition at 0.5 µM of 97% were found for `Cc1c(N(Cc2cccc3cccnc23)S(=O)(=O)c2ccsc2)sc2ccccc12` [Compound 17, N-(3-Methyl-benzo[b]thiophen-2-yl)-N-(quinolin-8-ylmethyl)-thiophene-3-sulfonamide] in this work.

A pIC50 of 7.09 and an inhibition at 0.5 µM of 94% were found for `Cc1c(N(Cc2ccc(F)c(F)c2)S(=O)(=O)c2cc3ccccc3s2)sc2ccccc12` [Compound 18, N-(3,4-Difluoro-benzyl)-N-(3-methyl-benzo[b]thiophen-2-yl)-benzo[b]thiophene-2-sulfonamide] in this work.

An inhibition at 0.5 µM of 58% was found for `Cc1c(N(Cc2cccc3cccnc23)S(=O)(=O)c2cc3ccccc3s2)sc2ccccc12` [Compound 19, N-(3-Methyl-benzo[b]thiophen-2-yl)-N-(quinolin-8-ylmethyl)-benzo[b]thiophene-2-sulfonamide] in this work.
